Results published in patent US20150157575A1, “Pharmaceutical Formulations Comprising Vilazodone” (Forest Laboratories Holdings Ltd., priority 2013, published 2015).

How the values were obtained:
[1] = In vitro dissolution, USP apparatus 2 (paddle); type: physicochemical; details: at first 30 minutes; FIGS. 4-6
Experimental: In the dissolution testing guideline for immediate release profiles, material dissolves over a period of time, and its dissolution is measured at given intervals during this period. A minimum of three time points is recommended and generally cover early, middle and late stages of the dissolution profile. […] In presence of minor changes to the drug dosage forms, a single point dissolution test may be adequate to ensure product dosing compliance. For major changes, a dissolution profile comparison performed under identical conditions for the product before and after the changes(s) is recommended. […] The term “similarity factor” or F2 factor as used herein refers to one way of comparing dissolution profiles of two different products. (Multisource Pharmaceutical Products: Guidelines on Registration Requirements to establish Interchangeability, Quality Assurance and Safety: Medicines, Essential Drugs and Medicines Policy, World Health Organization, 1211 Geneva 27, Switzerland). This model independent mathematical approach compares the dissolution profile of the two products: test and reference (or two strengths, or pre- and post-approved products from the same manufacturer) and calculates percent (%) difference between two curves at each time point and measures the relative error between two curves. Tests are recommended to be performed under the same test conditions. […]

[2] = Study 2: single-dose pharmacokinetics in severe hepatic impairment and matched healthy controls; details: for AUC(0-t) / AUC(0-inf) / Cmax / Tmax / half-life: both, human, po, 20 mg; for AUC(0-inf): AUC0-∞; for AUC(0-inf) / Cmax / Tmax / half-life: vilazodone 20 mg single oral dose
Experimental: The pharmacokinetics, tolerability, and safety of vilazodone were investigated in two separate trials involving participants with hepatic impairment, compared with healthy controls. An Open-label, parallel-group, single-dose pharmacokinetic studies, a single, oral dose of vilazodone (20 mg with increased hardness) was administered to participants with mild, moderate, or severe hepatic impairment or individually matched controls. Outcomes included pharmacokinetic parameters and safety (vital signs, clinical laboratory evaluations, ECG, and adverse events [AEs]). Plasma samples were analyzed using validated LC/MS/MS methods.
Data from two, open-label, parallel-group, single-dose pharmacokinetic studies investigated single-dose vilazodone (20 mg with increased hardness) in participants with hepatic impairment and normal hepatic function. The first study (Study 1) included participants with mild or moderate hepatic impairment and healthy controls. The second study (Study 2) included participants with severe hepatic impairment or healthy participants. These studies were both designed in accordance with the FDA guidance for evaluation of pharmacokinetics in the presence of hepatic impairment. The differences between the study protocols were minimal, so both methodologies are described together, with any differences noted below.
Participants were men and women, 18 to 70 years of age, with a body mass index (BMI) of 18-42 kg/m^2. Women were not pregnant or breastfeeding and agreed to utilize a medically accepted form of contraception during the study (as did men in Study 2). In Study 2, participants were also required to be non-smokers or light smokers (fewer than 10 cigarettes per day; there was no stipulation in Study 1) and to have a sitting pulse rate of 50-100 bpm at screening and prior to dosing on Day 1. […] Each healthy control was matched with a hepatically impaired participant. Control participants in the Study 1 were matched with a hepatically impaired individual according to age (±10 years), sex, and BMI (±15%). Control participants in Study 2 were matched with a hepatically impaired individual according to age (±5 years), sex, and weight (±10%).
Participants with hepatic dysfunction were classified according to the Child-Pugh hepatic dysfunction staging system as having mild (5-6 points) or moderate (7-9 points) hepatic impairment (Study 1), or severe impairment (10-15 points; Study 2). Participants with severe impairment also had chronic liver disease and/or compensated cirrhosis, as evidenced by liver biopsy, computerized tomography or ultrasonic evidence of hepatic fibrosis, clinical evidence of chronic liver disease, or a colloid shift on a liver-spleen scan. Exclusion criteria included the following: a clinical diagnosis or history of depression; treatment with antidepressants, anxiolytics, psychoactive medications (including herbal supplements), other serotonergic drugs, or drugs that inhibit CYP3A4 (eg, ketoconazole, diltiazem, macrolide antibiotics); a hypersensitivity to vilazodone or other SSRIs or 5-HT agonists; history or evidence of alcohol or substance abuse, cancer, human immunodeficiency virus, hepatitis B (Study 1 and healthy controls, both studies) hepatitis C (healthy controls, both studies), or other clinically significant illnesses or medical conditions. Participants with severe hepatic impairment were excluded if they had bleeding diathesis, advanced ascites requiring large-volume paracentesis within 1 week of dosing, esophageal bleeding within the previous 8 weeks, history of portosystemic shunt or hepatic transplant, or evidence of hepatic encephalopathy, hepatorenal syndrome, or other evidence of rapid hepatic deterioration.
Participants were not allowed to have previously taken vilazodone or participated in any clinical investigation requiring repeated blood draws within 60 days of dosing, or donated blood or plasma within 60 or 30 days, respectively.

[3] = Hepatic impairment studies: safety assessments (AEs, ECG); type: in vivo, human; details: for diarrhea, participants: both studies
Experimental: Safety assessments included vital signs, clinical laboratory evaluations, ECG, and the collection of adverse events (AEs). […] AEs were recorded at all study visits and as they were reported spontaneously by the participants, up to 30 days after the vilazodone dose. Participants were asked about their well-being at each visit.
Safety assessments were summarized without statistical comparisons. The last assessment made before the first dose of study drug was used as a baseline for all subsequent analyses.

serotonin reuptake site = serotonin reuptake site (Homo sapiens, UniProt P31645); details: cited from earlier work
[4] = target: norepinephrine reuptake site (Homo sapiens, UniProt P23975); details: cited from earlier work
CYP3A4 = CYP3A4 (Homo sapiens, UniProt P08684); details: in vitro studies; cited from earlier work
[5] = Severe impairment/control, 20 mg single dose, participants who vomited excluded
[6] = plasma, Control matched to Severe Impairment n = 8
[7] = plasma, Severe Impairment n = 4 (who did not vomit)
[8] = group with severe hepatic impairment
[9] = matched controls, 20 mg single dose

Chain of serotonin reuptake site (P31645 whole entry): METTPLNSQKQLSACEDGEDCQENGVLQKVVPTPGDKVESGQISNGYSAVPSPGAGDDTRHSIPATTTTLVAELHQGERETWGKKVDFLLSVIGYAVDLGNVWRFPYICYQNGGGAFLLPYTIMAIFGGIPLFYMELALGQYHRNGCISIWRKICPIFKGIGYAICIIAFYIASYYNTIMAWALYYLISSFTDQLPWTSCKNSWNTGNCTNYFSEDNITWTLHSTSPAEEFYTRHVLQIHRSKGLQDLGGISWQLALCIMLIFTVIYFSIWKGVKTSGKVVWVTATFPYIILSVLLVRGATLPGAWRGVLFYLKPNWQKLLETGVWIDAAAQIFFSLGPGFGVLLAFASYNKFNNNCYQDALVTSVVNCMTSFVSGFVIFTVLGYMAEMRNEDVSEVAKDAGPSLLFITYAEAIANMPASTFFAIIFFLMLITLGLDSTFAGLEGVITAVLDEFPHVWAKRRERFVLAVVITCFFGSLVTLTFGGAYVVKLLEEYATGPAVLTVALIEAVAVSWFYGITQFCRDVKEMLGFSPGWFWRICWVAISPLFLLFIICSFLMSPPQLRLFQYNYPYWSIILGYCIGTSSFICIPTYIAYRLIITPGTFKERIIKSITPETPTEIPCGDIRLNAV
Chain of CYP3A4 (P08684 whole entry): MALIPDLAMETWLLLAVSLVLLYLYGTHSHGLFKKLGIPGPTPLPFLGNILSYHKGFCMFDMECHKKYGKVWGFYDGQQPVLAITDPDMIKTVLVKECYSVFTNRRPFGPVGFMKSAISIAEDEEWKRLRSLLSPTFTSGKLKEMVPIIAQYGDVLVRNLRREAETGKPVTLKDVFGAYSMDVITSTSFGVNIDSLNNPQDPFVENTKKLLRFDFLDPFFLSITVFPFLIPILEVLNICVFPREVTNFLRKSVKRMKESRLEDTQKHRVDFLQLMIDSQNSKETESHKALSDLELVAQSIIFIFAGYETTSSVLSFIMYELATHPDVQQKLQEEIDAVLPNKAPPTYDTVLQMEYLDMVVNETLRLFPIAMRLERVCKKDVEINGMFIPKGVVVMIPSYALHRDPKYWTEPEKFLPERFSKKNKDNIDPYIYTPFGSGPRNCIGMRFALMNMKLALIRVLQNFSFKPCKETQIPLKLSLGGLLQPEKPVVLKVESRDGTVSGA
Chain of norepinephrine reuptake site (P23975 whole entry): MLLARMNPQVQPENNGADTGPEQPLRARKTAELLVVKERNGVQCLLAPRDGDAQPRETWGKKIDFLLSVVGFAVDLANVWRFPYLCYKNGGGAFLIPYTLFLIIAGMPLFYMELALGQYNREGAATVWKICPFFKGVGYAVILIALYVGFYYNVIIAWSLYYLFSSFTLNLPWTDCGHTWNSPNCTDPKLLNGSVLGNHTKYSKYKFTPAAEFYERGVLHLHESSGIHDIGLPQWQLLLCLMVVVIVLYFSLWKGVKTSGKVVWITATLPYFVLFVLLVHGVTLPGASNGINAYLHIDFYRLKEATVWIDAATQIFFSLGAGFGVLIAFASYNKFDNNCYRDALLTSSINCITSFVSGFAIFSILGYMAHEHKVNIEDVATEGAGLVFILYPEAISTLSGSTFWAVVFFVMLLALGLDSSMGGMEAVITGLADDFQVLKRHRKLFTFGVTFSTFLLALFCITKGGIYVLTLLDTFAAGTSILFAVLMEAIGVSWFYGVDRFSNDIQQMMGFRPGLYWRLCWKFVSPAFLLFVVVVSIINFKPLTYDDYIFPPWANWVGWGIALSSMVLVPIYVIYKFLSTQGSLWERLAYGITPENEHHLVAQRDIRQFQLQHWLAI

## Cl.N#Cc1ccc2[nH]cc(CCCCN3CCN(c4ccc5oc(C(N)=O)cc5c4)CC3)c2c1 [Vilazodone, 1-[4-(5-cyanoindol-3-yl)butyl]-4-(2-carbamoyl-benzofuran-5-yl)-piperazine hydrochloride]
[1]
  vilazodone HCl released: 80%
[2]; [5]
  AUC0-t, Ratio of Geometric Means (%): 96.9%
  AUC0-∞, Ratio of Geometric Means (%): 95.8%
  Cmax, Ratio of Geometric Means (%): 75.2%
[2]; in vivo
  AUC(0-t): 642 ± 96.9 ng·h/mL
[2]; plasma
  AUC(0-t): 694 ± 262 ng·h/mL
[2]; [6]
  AUC(0-inf): 731 ± 267 ng·h/mL
  Cmax: 35 ± 11.8 ng/mL
[2]; [7]
  AUC(0-inf): 670 ± 94.8 ng·h/mL
  Cmax: 25.3 ± 3.8 ng/mL
[2]; plasma, Tmax (mean), Control matched to Severe Impairment n = 8
  Tmax: 4.2 ± 1.3 h
[2]; plasma, Tmax (mean), Severe Impairment n = 4 (who did not vomit)
  Tmax: 4.8 ± 2.2 h
[2]; plasma, Tmax, Median, Control matched to Severe Impairment n = 8
  Tmax: 4.5 h
[2]; plasma, Tmax, Median, Severe Impairment n = 4 (who did not vomit)
  Tmax: 4 h
[2]; plasma, t1/2, Control matched to Severe Impairment n = 8
  half-life: 30.1 ± 13.8 h
[2]; plasma, t1/2, Severe Impairment n = 4 (who did not vomit)
  half-life: 29.8 ± 4.8 h
[2]; severe hepatic impairment vs healthy controls, 20 mg single dose
  mean Cmax lower than in healthy controls: approximately 25%
[2]; severe impairment group
  Mean unbound drug clearance (CLu/F) lower vs matched controls: 33%
[3]; [8]
  decrease in QT interval (mean, screening to end of study): 14.9 ms
  increase in QTcB interval (Bazett formula; mean, screening to end of study): 8.7 ms
[3]; hepatic impairment studies, 20 mg single dose
  deaths, serious AEs, discontinuations due to an AE: No deaths, serious AEs, or discontinuations due to an AE
[3]; [9]
  diarrhea, participants: 5 participants
  vomiting, participants: 0 participants
[3]; participants with hepatic impairment (all severe), 20 mg single dose
  vomiting, participants: 4 participants
[3]; participants with hepatic impairment, 20 mg single dose
  diarrhea, participants: 10 participants
Serotonin reuptake site
  binding affinity to serotonin reuptake site: high affinity
[4]
  binding to norepinephrine reuptake site: not
CYP3A4
  inhibitor or inducer of CYP3A4: not an inhibitor or inducer
